Experimental data reported in US20160264570A1, “METHOD OF BLOCKING TRANSMISSION OF MALARIAL PARASITE” (THE UNITED STATES OF AMERICA, AS REPRESENTED BY THE …, priority 2013, published 2016).
Where two headings read alike, the source gives them in different places.

Assays:
[1] = test system: HepG2 cells; assay: Cytotoxicity in mammalian HepG2 cell line; settings: for % Max response: HepG2; for IC50 (μM) in HepG2 cells / IC50 (μM) in HepG2: Inactive = no significant activity at highest tested concentration (46 μM); for IC50: Homo sapiens, HepG2, read-out: IC50 (μM) in HepG2 cells
[2] = test system: P. falciparum strain 3D7 gametocytes; assay: alamarBlue gametocyte viability assay, strain 3D7
[3] = Plasmodium falciparum, 3D7, read-out: 3D7-IC50
[4] = Plasmodium falciparum, 3D7, read-out: Gametocyte IC50

SMILES: O=C1C(=O)c2ncccc2-c2cccnc21 [Phanquinone]
- % Max response ([1]; Table 4): 23%
- IC50 (μM) in HepG2 cells ([1]; Table 4): Inactive
- IC50 [2, 3]: 100 nM

SMILES: COc1ccc(C[C@H](N)C(=O)N[C@H]2[C@@H](O)[C@H](n3cnc4c(N(C)C)ncnc43)O[C@@H]2CO)cc1 [Puromycin]
- IC50 [1]: 11.8 µM
- % Max response ([1]; Table 4): −71%
- IC50 [2, 3]: 1050 nM

SMILES: CCNC(=O)c1noc(-c2cc(C(C)C)c(O)cc2O)c1-c1ccc(CN2CCOCC2)cc1 [NVP-AUY922]
- IC50 [1]: 0.148 µM
- % Max response ([1]; Table 4): −88%
- IC50 ([2]; Plasmodium falciparum, 3D7, read-out: IC50 against gametocytes): 3 to 50 nM

SMILES: c1ccc2c(c1)[I+]c1ccccc1-2 [Diphenyleneiodonium]
- IC50 [2, 3]: 100 nM

SMILES: CC(C)C[C@H](NC(=O)[C@H](CCc1ccccc1)NC(=O)CN1CCOCC1)C(=O)N[C@@H](Cc1ccccc1)C(=O)N[C@@H](CC(C)C)C(=O)[C@@]1(C)CO1 [Carfilzomib]
- IC50 [1]: 1.18 µM
- % Max response ([1]; Table 4): −79%

SMILES: CN(C)C(=S)SSC(=S)N(C)C [Thiram]
- % Max response ([1]; Table 4): 23%
- IC50 (μM) in HepG2 cells ([1]; Table 4): Inactive

SMILES: S=C(SSC(=S)N1CCCCC1)N1CCCCC1 [Dicyclopentamethylene-thiuram disulfide, reference compound]
- IC50 [2, 4]: 274 nM

SMILES: C[C@@H]1CC[C@H]2[C@@H](C)C(=O)O[C@@H]3O[C@@]4(C)CC[C@@H]1[C@]32OO4 [Artemisinin, artemisinin]
- % Max response ([1]; Table 4): 18%
- IC50 (μM) in HepG2 cells ([1]; Table 4): Inactive
- IC50 [2, 3]: 100 nM

SMILES: COC(=O)C[C@](O)(CCCC(C)(C)O)C(=O)O[C@@H]1C(OC)=C[C@]23CCCN2CCc2cc4c(cc2[C@H]13)OCO4 [Omacetaxine]
- % Max response ([1]; Table 2): −27%
- IC50 (μM) in HepG2 ([1]; Table 2): Curve not complete
- % Max response ([1]; Table 4): −27%
- IC50 (μM) in HepG2 cells ([1]; Table 4): Curve not complete
- IC50 ([2]; read-out: Gametocyte IC50, mean of at least 3 independent experiments, P. falciparum 3D7 gametocyte): 83 nM

SMILES: [O-][n+]1ccccc1SSc1cccc[n+]1[O-] [Dipyrithione]
- IC50 [1]: 10.8 µM
- % Max response ([1]; Table 4): −93%
- IC50 [2, 3]: 200 nM

SMILES: CN(NC(=O)CC(=O)NN(C)C(=S)c1ccccc1)C(=S)c1ccccc1 [Elesclomol, elesclomol, reference compound]
- IC50 [2, 4]: 6 nM

SMILES: S=C(SSC(=S)N1CCCCC1)N1CCCCC1 [Dicyclopentamethylenethiram disulfide]
- % Max response ([1]; Table 2): 0%
- IC50 (μM) in HepG2 ([1]; Table 2): Inactive
- % Max response ([1]; Table 4): 0%
- IC50 (μM) in HepG2 cells ([1]; Table 4): Inactive

SMILES: CO[C@H]1O[C@@H]2O[C@@]3(C)CC[C@H]4[C@H](C)CC[C@@H]([C@H]1C)[C@@]24OO3 [Artemether]
- % Max response ([1]; Table 4): 7%
- IC50 (μM) in HepG2 cells ([1]; Table 4): Inactive

SMILES: OC(c1cc(C(F)(F)F)nc2c(C(F)(F)F)cccc12)C1CCCCN1 (centres unmarked) [Mefloquine, mefloquine]
- IC50 [1]: 29.6 µM
- % Max response ([1]; Table 4): −97%

SMILES: CC(=O)Nc1cccc(-n2c(=O)n(C3CC3)c(=O)c3c(Nc4ccc(I)cc4F)n(C)c(=O)c(C)c32)c1 [Trametinib]
- % Max response ([1]; Table 4): 14%
- IC50 (μM) in HepG2 cells ([1]; Table 4): Inactive

SMILES: C[C@H]1[C@H](OC(=O)CCC(=O)O)O[C@@H]2O[C@@]3(C)CC[C@H]4[C@H](C)CC[C@@H]1[C@@]24OO3 [Artesunate]
- % Max response ([1]; Table 4): 18%
- IC50 (μM) in HepG2 cells ([1]; Table 4): Inactive

SMILES: CO[C@H]1/C=C\C=C(/C)C(=O)NC2=CC(=O)C(NCCN(C)C)=C(C[C@@H](C)C[C@H](OC)[C@H](O)[C@@H](C)/C=C(\C)[C@@H]1OC(N)=O)C2=O [Alvespimycin]
- IC50 [1]: 0.118 µM
- % Max response ([1]; Table 4): −94%
